These results are taken from USRE49735E1 (BRISTOL-MYERS SQUIBB COMPANY, priority 2010, dated 2023).

Usually EC50 stands for the concentration that produces a half-maximal response. The low end stands for a more potent agent, the high end for a less potent agent.

Values joined by “and” are separate entries in the source; they are usually repeats but may differ in a detail not shown here. Equal entries are not always repeated.

In the assay the target is human mGluR5A (Homo sapiens, UniProt P41594). Description: mGluR5 FLIPR Assay. It counts as cell-based. The conditions noted are these: positive modulator activity; HEK293 (ZF) cells with human mGluR5A and rat GLAST; Ca++ response to ~EC10 glutamate.
human mGluR5A, sequence (P41594 21-1180 isoform P41594-2): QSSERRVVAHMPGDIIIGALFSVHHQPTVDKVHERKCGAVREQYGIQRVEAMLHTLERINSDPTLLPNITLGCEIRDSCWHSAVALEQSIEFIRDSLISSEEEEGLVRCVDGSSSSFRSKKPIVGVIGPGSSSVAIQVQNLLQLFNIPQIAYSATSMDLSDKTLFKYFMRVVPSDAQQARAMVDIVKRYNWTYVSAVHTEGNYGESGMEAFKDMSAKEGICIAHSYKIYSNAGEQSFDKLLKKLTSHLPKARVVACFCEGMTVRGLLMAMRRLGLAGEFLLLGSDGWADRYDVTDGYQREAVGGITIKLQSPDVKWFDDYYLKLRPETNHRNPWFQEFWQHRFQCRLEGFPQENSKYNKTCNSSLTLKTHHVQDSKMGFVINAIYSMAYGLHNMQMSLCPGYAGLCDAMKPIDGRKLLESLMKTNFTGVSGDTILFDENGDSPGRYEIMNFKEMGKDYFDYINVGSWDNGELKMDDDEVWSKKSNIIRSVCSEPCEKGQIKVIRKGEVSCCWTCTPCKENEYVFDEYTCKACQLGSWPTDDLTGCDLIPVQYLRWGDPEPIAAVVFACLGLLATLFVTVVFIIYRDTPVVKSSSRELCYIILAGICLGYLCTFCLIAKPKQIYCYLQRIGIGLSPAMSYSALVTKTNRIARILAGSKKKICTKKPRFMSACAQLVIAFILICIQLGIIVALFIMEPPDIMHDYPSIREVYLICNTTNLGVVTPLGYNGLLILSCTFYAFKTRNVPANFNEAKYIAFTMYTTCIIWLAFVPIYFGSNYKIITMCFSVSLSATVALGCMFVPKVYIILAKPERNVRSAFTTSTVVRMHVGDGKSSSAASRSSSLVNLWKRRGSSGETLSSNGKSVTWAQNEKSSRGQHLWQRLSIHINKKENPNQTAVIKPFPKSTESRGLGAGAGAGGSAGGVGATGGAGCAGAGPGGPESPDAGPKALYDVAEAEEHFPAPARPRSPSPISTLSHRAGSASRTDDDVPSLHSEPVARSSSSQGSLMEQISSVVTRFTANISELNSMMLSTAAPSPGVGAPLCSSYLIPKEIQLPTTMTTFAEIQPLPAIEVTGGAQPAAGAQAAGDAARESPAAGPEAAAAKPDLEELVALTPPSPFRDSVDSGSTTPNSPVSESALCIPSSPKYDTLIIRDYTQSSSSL
Turning to `N#Cc1ccc(C#Cc2cncc([C@H]3NC(=O)O[C@@H]3c3cc(F)ccc3F)c2)cc1` [Example 391, 4-((5-((4R,5R)-5-(2,5-difluorophenyl)-2-oxooxazolidin-4-yl)pyridin-3-yl)ethynyl)benzonitrile], the EC50 is over 1000 nM. `O=C1N[C@H](c2cncc(C#Cc3ccccc3Cl)c2)[C@@H](c2cc(F)ccc2F)O1` [Example 392, (4R,5R)-4-(5-((2-chlorophenyl)ethynyl)pyridin-3-yl)-5-(2,5-difluorophenyl)oxazolidin-2-one] returned an EC50 of under 100 nM. Molecule `O=C1N[C@H](c2cncc(C#Cc3ccnnc3)c2)[C@@H](c2cc(F)ccc2F)O1` [Example 393, (4R,5R)-5-(2,5-difluorophenyl)-4-(5-(pyridazin-4-ylethynyl)pyridin-3-yl)oxazolidin-2-one] gave an EC50 of over 1000 nM.

As to `O=C1N[C@H](c2cncc(C#Cc3ccncn3)c2)[C@@H](c2cc(F)ccc2F)O1` [Example 394, (4R,5R)-5-(2,5-difluorophenyl)-4-(5-(pyrimidin-4-ylethynyl)pyridin-3-yl)oxazolidin-2-one], the EC50 was over 1000 nM. Consider `O=C1N[C@H](c2cncc(C#Cc3cncnc3)c2)[C@@H](c2cc(F)ccc2F)O1` [Example 395, (4R,5R)-5-(2,5-difluorophenyl)-4-(5-(pyrimidin-5-ylethynyl)pyridin-3-yl)oxazolidin-2-one], for which the EC50 lay within 100 to 1000 nM. Regarding `O=C1N[C@H](c2cncc(C#Cc3cnccn3)c2)[C@@H](c2cc(F)ccc2F)O1` [Example 396, (4R,5R)-5-(2,5-difluorophenyl)-4-(5-(pyrazin-2-ylethynyl)pyridin-3-yl)oxazolidin-2-one], the EC50 is under 100 nM. `O=C1N[C@H](c2cncc(C#Cc3cnccn3)c2)[C@@H](c2cccc(F)c2)O1` [Example 397, (4R,5R)-5-(3-Fluorophenyl)-4-(5-(pyrazin-2-ylethynyl)pyridin-3-yl)oxazolidin-2-one] gave an EC50 of under 100 nM. Consider `O=C1N[C@H](c2cncc(C#Cc3cncnc3)c2)[C@@H](c2cccc(F)c2)O1` [Example 398, (4R,5R)-5-(3-fluorophenyl)-4-(5-(pyrimidin-5-ylethynyl)pyridin-3-yl)oxazolidin-2-one], for which the EC50 is 100 to 1000 nM and 141 nM. `O=C1N[C@H](c2cncc(C#Cc3ccccc3Cl)c2)[C@@H](c2cccc(F)c2)O1` [Example 399, (4R,5R)-4-(5-((2-chlorophenyl)ethynyl)pyridin-3-yl)-5-(3-fluorophenyl)oxazolidin-2-one] displayed an EC50 of under 100 nM. Molecule `O=C1N[C@H](c2cncc(C#Cc3cccc(F)c3)c2)[C@@H](c2cccc(F)c2)O1` [Example 400, (4R,5R)-5-(3-fluorophenyl)-4-(5-((3-fluorophenyl)ethynyl)pyridin-3-yl)oxazolidin-2-one] showed an EC50 of under 100 nM. `Cc1cccc(C#Cc2cncc([C@H]3NC(=O)O[C@@H]3c3cccc(F)c3)c2)c1` [Example 401, (4R,5R)-5-(3-fluorophenyl)-4-(5-(m-tolylethynyl)pyridin-3-yl)oxazolidin-2-one]: the EC50 is under 100 nM.

Turning to `O=C1N[C@H](c2cncc(C#Cc3cccc(C(F)(F)F)c3)c2)[C@@H](c2cccc(F)c2)O1` [Example 402, (4R,5R)-5-(3-fluorophenyl)-4-(5((3-(trifluoromethyl)phenyl)ethynyl)pyridin-3-yl)oxazolidin-2-one], the EC50 was over 3000 nM. The value for `O=C1N[C@H](c2cncc(C#Cc3cccc(Cl)c3)c2)[C@@H](c2cccc(F)c2)O1` [Example 403, (4R,5R)-4-(5-((3-chlorophenyl)ethynyl)pyridin-3-y1)-5-(3-fluorophenyl)oxazolidin-2-one] was under 100 nM. The value for `O=C1N[C@H](c2cncc(C#Cc3ccccc3)c2)[C@@H](c2ccccc2F)O1` [Example 404, (4R,5R)-5-(2-Fluorophenyl)-4-(5-(phenylethynyl)pyridin-3-yl)oxazolidin-2-one] was under 100 nM. Molecule `O=C1N[C@H](c2ccc(C#Cc3ccccc3)nc2)[C@@H](c2cccc(F)c2)O1` [Example 408, (4R,5R)-5-(3-Fluorophenyl)-4-(6-(phenylethynyl)pyridin-3-yl)oxazolidin-2-one] returned an EC50 of 100 to 1000 nM.

For the molecule `O=C1N[C@@H](c2ccc(C#Cc3ccccc3)cn2)[C@H](c2cccc(F)c2)O1` [Example 409, (4S,5S)-5-(3-Fluorophenyl)-4-(5-(phenylethynyl)pyridin-2-yl)oxazolidin-2-one], the EC50 was 100 to 1000 nM.

For the molecule `O=C1N[C@H](c2ccc(C#Cc3ccccc3)cn2)[C@@H](c2cccc(F)c2)O1` [Example 410, (4R,5R)-5-(3-fluorophenyl)-4-(5-(phenylethynyl)pyridin-2-yl)oxazolidin-2-one], the EC50 was over 1000 nM.
